Experiment [1] relates to 3D Huh7 spheroids. Put plainly: Lipid accumulation (AdipoRed) in 3D Huh7 spheroid culture under metabolic NASH stimulus. Conditions: Elafibranor 3 μM alone, Day 7. The format is cell-based. As for the experimental part:
Cryopreserved Huh7 were purchased from ECACC. Cells were grown in ULA plates (Costar), William's medium (Sigma) containing 10% FBS (Gibco) at 37° C. in a humidified 5% CO2 cell culture incubator. Cells aggregated and formed spheroids within 5 days.
For these experiments, a checkerboard matrix was generated. ELA and component (ii) stocks were serially diluted in DMSO in 2-points series in a row (ELA) and a 3-points series in a column (component (ii)) of a 96-well plate. Subsequently, the 2×3 combination matrix was generated by 1:1 mixing of all single agent concentrations.
3D Huh7 spheroids were cultured under standard conditions, as described above. They were then deprived for 24 hours in serum-free medium. For the treatments with ELA, component (ii) and the respective ELA/component (ii) combinations, the serum-deprived spheroids were treated with both a metabolic NASH stimulus and the compounds (Day 0) followed by the renewal of the metabolic NASH stimulus and the compounds at Day 4 for an additional 3 days period. The spheroids were stained for lipid accumulation at Day 7.
Intracellular lipid accumulation was quantified using the ADIPORED Assay Reagent (Lonza). Spheroids were subjected to fluorescence assay quantification at λexc: 485 nm and λem: 572 nm, using fluorescence plate reader (TECAN).

Experiment [2] has as its system LPS-activated macrophages (THP-1). The experiment is described as follows: TNFα secretion (HTRF) in LPS-activated THP-1 macrophages. The class given is cell-based, human. Conditions: Elafibranor 1 μM alone; LPS 100 ng/ml 6 h. As for the experimental part: THP-1 monocytes (ECACC #88081201) were seeded at a density of 25550 cells per well in 384-well plate in RPMI1640 (Gibco, 21875) supplemented with 10% SVF and differentiated into macrophages using PMA (Phorbol 12-myristate 13-acetate, Sigma, P8139) at the final concentration of 100 ng/ml for 24 hours.
For these experiments, a checkerboard matrix was generated. ELA and component stocks were serially diluted in DMSO in 6-points series in a column (ELA) and a 10-points series in a raw (component) of a 96-well plate for other compounds. Subsequently, the 6×10 combination matrix was generated by 1:1 mixing of all single agent concentrations.
After 24 hrs with PMA, medium was removed, and replaced by serum free RPMI. […]
Human TNFα is quantified in the supernatants using the Homogeneous Time Resolved Fluorescence (HTRF) technology (Cisbio 62[…]), based on FRET technology. FRET (Fluorescence Resonance Energy Transfer) is based on the transfer of energy between two fluorophores, a donor and an acceptor, when in close proximity. Molecular interactions between biomolecules can be assessed by coupling each partner with a fluorescent label and by detecting the level of energy transfer (665 nm). […]

In experiment [3] the test system is TGFβ1-induced hHSC. Put plainly: α-SMA ELISA in TGFβ1-induced human primary hepatic stellate cells. The format is cell-based. As for the experimental part: The human primary hepatic stellate cells (hHSC) (Innoprot) were cultured in STeCM medium (ScienCell cat #5301) that was supplemented with 2% fetal bovine serum (FBS, ScienCell cat #0010), 1% penicillin/streptomycin (ScienCell cat #0503) and stellate cell growth supplement (SteCGS; ScienCell cat #5352). Cell culture flasks were coated with Poly-L Lysine (Sigma cat #P4707) for a better adherence.
For these experiments, a checkerboard matrix was generated. ELA and component (ii) stocks were serially diluted in DMSO in 5-points series in a row (ELA) and a 11-points series in a column (component (ii)) of a 96-well plate. Subsequently, the 5×11 combination matrix was generated by 1:1 mixing of all single agent concentrations. The test concentrations for each compound were chosen based on the respective IC50 of each compound as single agent obtained by measuring α-SMA content in the HSC model stimulated with TGF-β1.
The human primary hepatic stellate cells (hHSC) (Innoprot) were cultured under standard conditions, as described above. The cells were subsequently plated at a density of 2×10^4 cells/well into 96-well plates for the measure of α-SMA by ELISA. The next day, cell-culture medium was removed, and cells were washed with PBS (Invitrogen cat #14190). hHSC were deprived for 24 hours in serum-free and SteCGS-free medium. For the treatments with ELA, component (ii) and the respective ELA/component (ii) combinations, the serum-deprived hHSC were preincubated for 1 hour with the compounds followed by addition of the profibrogenic stimuli TGF-β1 (PeproTech cat #100-21, 1 ng/mL) in serum-free and SteCGS-free medium for an additional 48 hour period.
The level of α-SMA was measured using a Sandwich ELISA. Briefly, the wells of an ELISA plate were first coated with the capture antibody (mouse monoclonal anti-ACTA2, Abnova) at 4° C. overnight. After 3 washes in PBS+0.2% Tween 20, a blocking solution consisting of PBS+0.2% BSA was added for one hour followed by another washing cycle. The cell lysates were transferred into the wells for binding to the capture antibody for a period of 2 h at room temperature. After the washing procedure, the detection antibody (biotinylated mouse monoclonal anti-ACTA2, Abnova) was added for 2 hours at room temperature followed by 3 washes. For the detection, an HRP-conjugated Streptavidin (R&D Systems cat #DY998) was first applied for 30 min at room temperature. After washing, the HRP substrate TMB (BD, #555214) was added and incubated for 7 min at room temperature in the dark. Upon oxidation, TMB forms a water-soluble blue reaction product that becomes yellow with addition of sulfuric acid (solution stop), enabling accurate measurement of the intensity at 450 nm using a spectrophotometer. The developed color is directly proportional to the amount of α-SMA present in the lysate.
The human primary hepatic stellate cells (hHSC) (Innoprot) were cultured in STeCM medium (ScienCell cat #5301) that was supplemented with 2% fetal bovine serum (FBS, ScienCell cat #0010), 1% penicillin/streptomycin (ScienCell cat #0503) and stellate cell growth supplement (SteCGS; ScienCell cat #5352). Cell-culture flasks were coated with Poly-L Lysine (Sigma cat #P4707) for a better adherence.
For these experiments, a checkerboard matrix was generated. CVC and Elafibranor stocks were serially diluted in DMSO in a 5-points series in a row (Elafibranor) and a 6-points series in a column (Cenicriviroc) of a 96-well plate. Subsequently, the […] combination matrix was generated by 1:1 mixing of all single agent concentrations. The test concentrations for each compound were chosen based on the respective IC50 of each compound as single agent obtained by measuring α-SMA content in the HSC model stimulated with TGF-β1.
The human primary hepatic stellate cells (hHSC) (Innoprot) were cultured under standard conditions, as described above. […]

As to “1-[4-methylthiophenyl]-3-[3,5-dimethyl-4-carboxydimethylmethyloxyphenyl]prop-2-en-1-one [Elafibranor]”, in experiment [1], the “reduction of fat content” value came to 12%. Besides, in experiment [2], the “inhibition of TNFα secretion” value amounted to 21%. Further, in experiment [3] (5 μM of Elafibranor alone), the “α-SMA inhibition over TGFβ1 control” value came out at 40%. In addition, the IC50 in experiment [3] (TGFβ1 1 ng/ml, 48 h, single agent) was found to be 3.17 µM. Moreover, in experiment [3] (TGFβ1 1 ng/ml, 48 h, single agent, maximal reduction), the α-SMA marker reduction was found to be 80%. Besides, in experiment [3] (TGFβ1-activated hHSC, dose range), the “antifibrotic activity (α-SMA), single agent” value is on record as “has an antifibrotic activity”.

These data come from patent US11478440B2, “Combination of Elafibranor or derivatives thereof with an anti-NASH, anti-fibrotic or anti-cholestatic agent” (GENFIT, priority 2017, dated 2022).
